According to patent US7442541B2, “β-glucan-containing fat and oil composition and novel microorganism capable of producing β-glucan” (Adeka Corporation, priority 2002, dated 2008):

Key:
Test in all cases: Cycloheximide resistance test
Type in all cases: cell-based, Aureobasidium pullulans
IFO-6353 = conditions: strain IFO-6353, YM agar, 26° C., 10 days
Method: (§1) The strains obtained by the screening in Test Examples 1 and 2 and IFO-4466, IFO-6353, and IFO-7757 purchased from Institute for Fermentation, Osaka, i.e., were tested for cycloheximide resistance as follows. Each strain was grown on YM agar medium (Difco) at 26° C. for 5 days. YM agar media (Difco) containing 5, 10, 20, 40, and 80 μg/ml of cycloheximide were prepared. The grown strain was inoculated into each of the cycloheximide-containing media using a sterile toothpick and incubated at 26° C. for 10 days. The plates were examined for colonies. The diameters of the colonies, if formed, were measured.

ADK-71 = conditions: strain ADK-71, YM agar, 26° C., 10 days
Method: as §1

ADK-77 = conditions: strain ADK-77, YM agar, 26° C., 10 days
Method: as §1

ADK-82 = conditions: strain ADK-82, YM agar, 26° C., 10 days
Method: as §1

C[C@@H]1C[C@@H]([C@H](O)CC2CC(=O)NC(=O)C2)C(=O)[C@@H](C)C1 [Cycloheximide, cycloheximide]
Colony diameter (IFO-6353; cycloheximide 5 μg/ml): 7.3 mm
Colony diameter (IFO-6353; cycloheximide 10 μg/ml): 2.3 mm
Colony diameter (IFO-6353; cycloheximide 20 μg/ml): 0 mm
Colony diameter (IFO-6353; cycloheximide 40 μg/ml): 0 mm
Colony diameter (IFO-6353; cycloheximide 80 μg/ml): 0 mm
Colony diameter (ADK-71; cycloheximide 5 μg/ml): 7.6 mm
Colony diameter (ADK-71; cycloheximide 10 μg/ml): 4.1 mm
Colony diameter (ADK-71; cycloheximide 20 μg/ml): 1.8 mm
Colony diameter (ADK-71; cycloheximide 40 μg/ml): 1.2 mm
Colony diameter (ADK-71; cycloheximide 80 μg/ml): 0 mm
Colony diameter (ADK-77; cycloheximide 5 μg/ml): 9.5 mm
Colony diameter (ADK-77; cycloheximide 10 μg/ml): 4.1 mm
Colony diameter (ADK-77; cycloheximide 20 μg/ml): 0.8 mm
Colony diameter (ADK-77; cycloheximide 40 μg/ml): 0 mm
Colony diameter (ADK-77; cycloheximide 80 μg/ml): 0 mm
Colony diameter (ADK-82; cycloheximide 5 μg/ml): 10.4 mm
Colony diameter (ADK-82; cycloheximide 10 μg/ml): 2.9 mm
Colony diameter (ADK-82; cycloheximide 20 μg/ml): 1.5 mm
Colony diameter (ADK-82; cycloheximide 40 μg/ml): 1.2 mm
Colony diameter (ADK-82; cycloheximide 80 μg/ml): 0 mm
